Laboratory results as given in US20050085444A1, “Cosmetic or dermatological use of vitamin a or the esters thereof in combination with a partly methylated beta-cyclodextrin” (priority 2002, published 2005).

Conditions: fresh human skin with dermis, control/VAP gel and RAMEB/VAP gel, contact time 24 hours
Protocol: The study is carried out using the Franz cells characterized above.
After a contact time of 24 hours, the excess gel on the surface of the skin is washed off with the aid of cotton buds.
The cotton buds together with the upper part of the cell are immersed in 10 ml of isopropanol and ultrasonicated for 15 minutes and then stirred for 2 hours.
The solutions are diluted to 1/10 and filtered on a 0.2 μm filter before assaying.
The stratum corneum is collected by 7 successive strippings (pressure 300 g/cm^2, duration 12 s). The VAP is extracted by solubilization in 2 ml of methanol overnight at 4° C., followed by stirring for 2 hours and finally filtration on a 0.2 μm filter before assaying.
With the stratum corneum removed, the epidermis is separated from the dermis with the aid of a scalpel.
The VAP is extracted from the epidermis by solubilization of the latter in 1 ml of methanol overnight at 4° C., followed by stirring for 2 hours and finally filtration on a 0.2 μm filter before assaying.
The VAP assays are performed by HPLC.

CCC(=O)OC/C=C(C)/C=C/C=C(C)/C=C/C1=C(C)CCCC1(C)C [VAP, vitamin A propionate]
VAP detected in the reception liquid: No trace
